Data: ChEMBL document CHEMBL4118171, “Brain penetrant kinase inhibitors: Learning from kinase neuroscience discovery” (Bioorg Med Chem Lett, 2018)
Each block holds one compound with its values, some of them ahead of it.

How the values were obtained:
[1] = Ratio of drug level in brain to plasma in rat; format: ADME; conditions: read-out: BPR
Rattus norvegicus [2] = experiment: In vivo inhibition of Plk2-mediated phosphorylation of alpha-synuclein in Sprague-Dawley rat brain assessed as reduction in pS129-alpha-synuclein levels at 100 mg/kg, po administered as single dose after 6 hrs by sandwich ELISA relative to control; format: functional
[3] = Ratio of drug level in Sprague-Dawley rat brain to plasma at 100 mg/kg, po administered as single dose after 6 hrs by LC-MS/MS analysis; format: ADME, organism-based; conditions: read-out: BPR
[4] = Ratio of AUC (0 to 3 hrs) in FVB mouse brain to plasma at 1 mg/kg, iv by LC-MS/MS analysis; format: ADME, organism-based; conditions: read-out: Ratio AUC
Rattus norvegicus [5] = experiment: In vivo inhibition of Plk2-mediated phosphorylation of alpha-synuclein in Sprague-Dawley rat brain assessed as reduction in pS129-alpha-synuclein levels at 200 mg/kg, po administered as single dose after 6 hrs by sandwich ELISA relative to control; format: functional
[6] = Ratio of drug level in Sprague-Dawley rat brain to plasma at 200 mg/kg, po administered as single dose after 6 hrs by LC-MS/MS analysis; format: ADME, organism-based; conditions: read-out: BPR
MDR1 [7] = experiment: Efflux ratio of apparent permeability in MDCK2-MDR1; format: ADME, cell-based, Canis lupus familiaris; conditions: dog, MDCK-MDR1
MDR1 [8] = experiment: Efflux ratio of apparent permeability in MDCK cells expressing human MDR1; format: ADME, cell-based, Canis lupus familiaris; conditions: dog
[9] = Unbound Cmax in C57BL/6J mouse brain at 10 mg/kg, sc; format: ADME, organism-based; conditions: in vivo
Mus musculus [10] = experiment: In vivo target occupancy at CK1epsilon in C57BL/6J mouse CNS at 10 mg/kg, sc; format: functional
Mus musculus [11] = experiment: In vivo target occupancy at CK1delta in C57BL/6J mouse CNS at 10 mg/kg, sc; format: functional
[12] = Efflux ratio of apparent permeability in human Caco2 cells by HPLC-MS/MS analysis; format: ADME, cell-based; conditions: Caco-2
[13] = Ratio of drug level in brain to plasma in Sprague-Dawley rat at 5 mg/kg, po after 3 hrs by LC-MS/MS analysis; format: ADME, organism-based; conditions: read-out: BPR
[14] = Drug uptake in mouse CSF up to 20 mg/kg/day, po after 30 to 60 mins by LC/MS analysis relative to brain; format: ADME, organism-based, Cerebrospinal fluid; conditions: in vivo
[15] = Drug uptake in mouse brain at 5 mg/kg/day, po after 30 to 60 mins by LC/MS analysis; format: ADME, organism-based; conditions: in vivo, read-out: Drug uptake
[16] = Ratio of drug level in plasma to CSF in Alzheimer's disease patient at 50 to 125 mg, po qd for 4 weeks measured 23 to 28 hrs post last dose by LC/MS analysis; format: ADME, organism-based; conditions: human, in vivo
[17] = Drug uptake in mouse brain up to 20 mg/kg/day, po after 30 to 60 mins by LC/MS analysis relative to plasma; format: ADME, organism-based
[18] = Ratio of drug level in brain to plasma in C57BL6 mouse at 30 mg/kg, po after 1 hr by LC/MS analysis; format: ADME, organism-based; conditions: read-out: BPR

Structure (SMILES): CN1C(=O)[C@@H](NC(=O)c2nnc(Cc3ccccc3)o2)COc2cccnc21
efflux ratio (MDR1 [7]): < 2

Structure (SMILES): COc1ncccc1-c1cnn2ccc(N3CCN(C(=O)OC(C)C)CC3)nc12
Kp [1]: > 2

Structure (SMILES): Nc1nccc(-c2c(-c3ccc(F)cc3)ncn2C2CCN(Cc3ccon3)CC2)n1
efflux ratio (MDR1 [8]): 3.2
fCmax [9]: 117 nM
Occ (Mus musculus [10]): 58%
Occ (Mus musculus [11]): 88%

Structure (SMILES): CN1CCN(c2cc(-c3ccncc3)c(-c3ccc4ccccc4c3)nn2)CC1 [MW-150]
efflux ratio [12]: 0.9
Kp at 3 h [13]: > 0.9

Structure (SMILES): Cc1ccc(C(=O)NNC(=O)c2c(C)cccc2Cl)cc1C#Cc1cnc2ccccc2c1 [VODOBATINIB]
Kp at 1 h [18]: 0.4

Now from value to compound, other results behind:

Kp [1]: 0.007
Structure (SMILES): CN(CCNc1ccn2ncc(-c3ccc(C(N)=O)cc3)c2n1)C(=O)OC(C)(C)C

Kp at 6 h [3]: 0.42
Kp [4]: 0.3
Kp at 6 h [6]: 0.46
Structure (SMILES): CC[C@@]12COCCN1c1nc(-n3ccnc3-c3ccccc3)ncc1N(C)C2=O
inhibition in vivo at 100 mg/kg (Rattus norvegicus [2]): 34.5%
inhibition in vivo at 200 mg/kg (Rattus norvegicus [5]): 41.4%

Drug uptake [14]: 35%
concentration [15]: 50 nM
Ratio [16]: 0.4
Drug uptake [17]: 50%
Structure (SMILES): CN1CCN(CCOc2cc(OC3CCOCC3)c3c(Nc4c(Cl)ccc5c4OCO5)ncnc3c2)CC1 [SARACATINIB]
